Experiments:
Format in all cases: in vivo
[1] = test system: horse; test: Sedation / head ptosis response in the standing horse after intravenous administration
Protocol: As used herein by “rapid onset” is meant to include the time interval from administration of the active, e.g., guanabenz acetate, until the drug begins to take effect and produce the intended response, e.g., sedation and/or tranquilization and /or analgesia. For the compositions disclosed herein, this time interval typically ranges from between about 1 minute to about 30 minutes. As one of skill in the art can appreciate, the length of time for onset of action can vary, e.g., depending upon the route of administration, the species, age, size, and health status of the animal and the like. In the adult horse, for example, the clinical signs of sedation will begin to appear within 1–3 minutes following a single intravenous administration of about 100 mg of guanabenz or guanabenz acetate.
The term “analgesia” or “analgesic” is meant to include any conscious relief from a painful stimulus in an animal. In general, an analgesic is an agent that alleviates pain or reduces the sensation of pain without causing loss of consciousness. The term “long lasting” is generally meant to include the time interval from the onset of effect of the active until the effect has waned to a subclinical level. Thus, the establishment of this time interval is subjective but is readily ascertainable in the hands of the skilled artisan. Of course the duration of action of the active can vary, e.g., depending upon the route of administration, the species, age, size, and health status of the animal and the like. In the adult horse, for example, the clinical signs of sedation will begin to appear within 1–3 minutes following a single intravenous administration of about 100 mg of guanabenz or guanabenz acetate and the duration of action is up to about 4 hours.
In one embodiment, the present invention provides the surprising discovery that guanabenz acetate, after a single intravenous dose of about 0.2 milligrams per kilogram per horse, produces a rapid onset of sedation and/or, tranquilization and/or analgesia in the standing horse.
The solid circles (● - - - ●) show head ptosis measured as cm above ground level after rapid intravenous administration of guanabenz.

[2] = test system: horse; test: Heat lamp equine analgesia model; details: horse 1000 lbs, 0.2 mg/kg (100 mg) intravenously
Protocol: A horse (1000 lbs) in was administered guanabenz at a dose of 0.2 mg/kg (100 mg) intravenously at time point 0 (see FIG. 2). […] Note also that this response is maintained at full intensity for approximately 30 minutes and declines thereafter, and returns to control values by 6 hrs post administration. The solid circles (● - - - ●) show the increasing control latency in our heat lamp equine analgesia model after administration of guanabenz at indicated zero time.

[3] = Blood glucose, urine glucose, urine production and urine specific gravity after intravenous administration; details: horse about 1000 lbs, 0.2 mg/kg (100 mg) intravenously
Protocol: Referring now to FIG. 3, a horse (about 1000 lbs) was administered guanabenz at a dose of 0.2 mg/kg (100 mg) intravenously at time point 0. […] The solid circles (● - - - ●) show blood glucose levels after rapid intravenous administration of guanabenz. Note also the increase in urine glucose levels after the administration of guanabenz. The open circles (◯-◯) show the corresponding urinary concentrations of glucose after this administration.
In FIG. 3b, note how the dose of 100 mg of guanabenz yields an increase in urine production as indicated by the increase in volume of urine collected. The solid circles (● - - - ●) show volume of urinary output after rapid intravenous administration of guanabenz. Note also in FIG. 3c, the decrease in specific gravity of the urine after the administration of the guanabenz. The solid circles (● - - - ●) show the corresponding urinary specific gravity values after this administration.

[4] = standing horse, single intravenous dose of about 0.2 mg/kg

Compound: N=C(N)N/N=C/c1c(Cl)cccc1Cl [guanabenz acetate]
- duration for which sedation and head ptosis are maintained [1, 4]: up to four hours
- onset of profound sedation and head ptosis [1, 4]: within one minute

Compound: N=C(N)N/N=C/c1c(Cl)cccc1Cl [guanabenz, 1-[2,6-dichlorobenzylidine-amino]-3-guanidine]
- onset of analgesia response (desensitization to the heat lamp), FIG. 2 [2]: very rapid onset
- time for which the analgesia response is maintained at full intensity [2]: approximately 30 minutes
- time at which the analgesia response returns to control values ([2]; post administration): ≤ 6 h
- head ptosis response (cm above ground level), FIG. 1 ([1]; horse about 1000 lbs, 0.2 mg/kg (100 mg) intravenously): very rapid onset
- blood glucose levels, FIG. 3a [3]: transient increase
- specific gravity of the urine, FIG. 3c [3]: decrease
- urine glucose levels, FIG. 3a [3]: increase
- urine production (volume of urine collected), FIG. 3b [3]: increase

Compound: COC(=O)[C@@H]1[C@H]2C[C@H]3c4[nH]c5ccccc5c4CCN3C[C@@H]2CC[C@@H]1O [yohimbine]
- reversal of guanabenz tranquilization and sedation (head ptosis), FIG. 1 ([1]; horse given guanabenz 100 mg i.v., yohimbine 60 mg intravenously): rapid reversal
- reversal of guanabenz acetate sedation and head ptosis response ([1]; horse, guanabenz acetate about 0.2 mg/kg i.v., antagonist given intravenously): rapidly reversible
